Laboratory results: PubChem BioAssay (NCI)
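Five concentrations, 48 hours, 96-well plates. TGI: total growth inhibition.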

How the values were obtained:
Test in all cases: DTP human tumour cell line panel, 48 h
[1] = system: A549 NSCLC
[2] = system: OVCAR-4 ovarian
[3] = system: MDA-MB-435
[4] = system: SK-MEL-28 melanoma
[5] = system: UACC-62 melanoma
[6] = system: MDA-N
[7] = system: CCRF-CEM leukemia
[8] = system: SF-268 CNS
[9] = system: T-47D breast

SMILES	TGI [1] [µM]	TGI [2] [µM]	TGI [3] [µM]	TGI [4] [µM]	TGI [5] [µM]	TGI [6] [µM]	TGI [7] [µM]	TGI [8] [µM]	TGI [9] [µM]
CC(=O)c1ccccc1NCC(=O)Nn1cnc2ccc(S(=O)(=O)Nc3ccccc3C(C)=O)cc2c1=O	> 100	> 100	> 100	> 100	> 100	> 100	> 100	> 100	
O=c1[nH]c(=O)n(C2CC(O)C(CO)O2)cc1NN=NCCCc1ccccc1 (configuration not stated)	> 100	> 100	> 100	> 100	> 100	> 100	> 100	> 100	> 100
COC(=O)C1=C(OC(=O)/C=C/c2ccccc2)C(C(=O)OC)[C@@]2(O)[C@@H](C(=O)OC)[C@H](C)C[C@@H]1[C@@H]2C(=O)OC (some centres not stated)	58.4	> 100	> 100	> 100	33.1	> 100	> 100	92	84.4
CC(C)CCCC(C)[C@H]1CC[C@H]2[C@@H]3CC[C@H]4C[C@@H](CCC=C(c5cc(Cl)c(O)c(C(=O)OC(C)C)c5)c5cc(Cl)c(O)c(C(=O)OC(C)C)c5)CC[C@]4(C)[C@H]3CC[C@]12C (some centres not stated)	> 50	> 50	> 50	> 50	> 50	> 50	> 50	> 50	> 50
O=c1c2c3c(sc2nc2n1N=C(c1ccc(Cl)cc1)CS2)CCCC3	> 100	> 100	> 100	> 100	> 100	> 100	> 100	> 100	> 100
COC(=O)[C@H]1NC(=O)CCSSC1(C)C	> 100	> 100	> 100	> 100	> 100		> 100	> 100	> 100
